PubChem BioAssay (NCI)
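Cultured in 96-well plates, cells were exposed to test compound for 48 hours across five concentrations. TGI marks complete inhibition of growth.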

Experiments:
Test in all cases: growth of human tumour cells (NCI), 48 h
786-0 renal = tested on: 786-0 renal
A498 renal = tested on: A498 renal
A549 NSCLC = tested on: A549 NSCLC
ACHN renal = tested on: ACHN renal
BT-549 breast = tested on: BT-549 breast
CAKI-1 renal = tested on: CAKI-1 renal
CCRF-CEM leukemia = tested on: CCRF-CEM leukemia
COLO 205 colon = tested on: COLO 205 colon
DU-145 prostate = tested on: DU-145 prostate
EKVX NSCLC = tested on: EKVX NSCLC
HCC-2998 colon = tested on: HCC-2998 colon
HCT-116 colon = tested on: HCT-116 colon
HCT-15 colon = tested on: HCT-15 colon
HL-60(TB) leukemia = tested on: HL-60(TB) leukemia
HOP-62 NSCLC = tested on: HOP-62 NSCLC
HOP-92 NSCLC = tested on: HOP-92 NSCLC
HS 578T breast = tested on: HS 578T breast
HT29 colon = tested on: HT29 colon
IGROV1 ovarian = tested on: IGROV1 ovarian
K-562 leukemia = tested on: K-562 leukemia
KM12 colon = tested on: KM12 colon
LOX IMVI melanoma = tested on: LOX IMVI melanoma
M14 melanoma = tested on: M14 melanoma
MALME-3M melanoma = tested on: MALME-3M melanoma
MDA-MB-231 breast = tested on: MDA-MB-231 breast
MDA-MB-435 = tested on: MDA-MB-435
MDA-N = tested on: MDA-N
MOLT-4 leukemia = tested on: MOLT-4 leukemia
NCI-H226 lung = tested on: NCI-H226 lung
NCI-H23 lung = tested on: NCI-H23 lung
NCI-H460 lung = tested on: NCI-H460 lung
NCI-H522 lung = tested on: NCI-H522 lung
NCI/ADR-RES ovarian = tested on: NCI/ADR-RES ovarian
OVCAR-3 ovarian = tested on: OVCAR-3 ovarian
OVCAR-4 ovarian = tested on: OVCAR-4 ovarian
OVCAR-5 ovarian = tested on: OVCAR-5 ovarian
OVCAR-8 ovarian = tested on: OVCAR-8 ovarian
PC-3 prostate = tested on: PC-3 prostate
RPMI-8226 leukemia = tested on: RPMI-8226 leukemia
RXF 393 renal = tested on: RXF 393 renal
SF-268 CNS = tested on: SF-268 CNS
SF-295 CNS = tested on: SF-295 CNS
SF-539 CNS = tested on: SF-539 CNS
SK-MEL-2 melanoma = tested on: SK-MEL-2 melanoma
SK-MEL-28 melanoma = tested on: SK-MEL-28 melanoma
SK-MEL-5 melanoma = tested on: SK-MEL-5 melanoma
SK-OV-3 ovarian = tested on: SK-OV-3 ovarian
SN12C renal = tested on: SN12C renal
SNB-19 CNS = tested on: SNB-19 CNS
SNB-75 CNS = tested on: SNB-75 CNS
SR leukemia = tested on: SR leukemia
SW-620 colon = tested on: SW-620 colon
T-47D breast = tested on: T-47D breast
U251 CNS = tested on: U251 CNS
UACC-257 melanoma = tested on: UACC-257 melanoma
UACC-62 melanoma = tested on: UACC-62 melanoma
UO-31 renal = tested on: UO-31 renal
TK-10 renal = tested on: TK-10 renal

CNC(=S)N/N=C(\C)c1ccc(OC)cc1O
TGI (786-0 renal): > 100 µM
TGI (A498 renal): > 100 µM
TGI (A549 NSCLC): > 100 µM
TGI (ACHN renal): > 100 µM
TGI (BT-549 breast): > 100 µM
TGI (CAKI-1 renal): > 100 µM
TGI (CCRF-CEM leukemia): > 100 µM
TGI (COLO 205 colon): > 100 µM
TGI (DU-145 prostate): > 100 µM
TGI (EKVX NSCLC): > 100 µM
TGI (HCC-2998 colon): > 100 µM
TGI (HCT-116 colon): > 100 µM
TGI (HCT-15 colon): > 100 µM
TGI (HL-60(TB) leukemia): > 100 µM
TGI (HOP-62 NSCLC): > 100 µM
TGI (HOP-92 NSCLC): > 100 µM
TGI (HS 578T breast): > 100 µM
TGI (HT29 colon): > 100 µM
TGI (IGROV1 ovarian): > 100 µM
TGI (K-562 leukemia): > 100 µM
TGI (KM12 colon): > 100 µM
TGI (LOX IMVI melanoma): > 100 µM
TGI (M14 melanoma): > 100 µM
TGI (MALME-3M melanoma): > 100 µM
TGI (MDA-MB-231 breast): > 100 µM
TGI (MDA-MB-435): > 100 µM
TGI (MDA-N): > 100 µM
TGI (MOLT-4 leukemia): > 100 µM
TGI (NCI-H226 lung): > 100 µM
TGI (NCI-H23 lung): > 100 µM
TGI (NCI-H460 lung): > 100 µM
TGI (NCI-H522 lung): > 100 µM
TGI (NCI/ADR-RES ovarian): > 100 µM
TGI (OVCAR-3 ovarian): > 100 µM
TGI (OVCAR-4 ovarian): 94.2 µM
TGI (OVCAR-5 ovarian): > 100 µM
TGI (OVCAR-8 ovarian): > 100 µM
TGI (PC-3 prostate): > 100 µM
TGI (RPMI-8226 leukemia): > 100 µM
TGI (RXF 393 renal): > 100 µM
TGI (SF-268 CNS): > 100 µM
TGI (SF-295 CNS): > 100 µM
TGI (SF-539 CNS): > 100 µM
TGI (SK-MEL-2 melanoma): > 100 µM
TGI (SK-MEL-28 melanoma): > 100 µM
TGI (SK-MEL-5 melanoma): > 69.5 µM
TGI (SK-OV-3 ovarian): > 100 µM
TGI (SN12C renal): > 100 µM
TGI (SNB-19 CNS): > 100 µM
TGI (SNB-75 CNS): > 100 µM
TGI (SR leukemia): > 100 µM
TGI (SW-620 colon): > 100 µM
TGI (T-47D breast): > 100 µM
TGI (U251 CNS): > 100 µM
TGI (UACC-257 melanoma): > 100 µM
TGI (UACC-62 melanoma): > 100 µM
TGI (UO-31 renal): > 100 µM

Cc1c2ccccc2nc2[nH]c3ccncc3c12
TGI (786-0 renal): 71.5 µM
TGI (A498 renal): > 100 µM
TGI (A549 NSCLC): > 100 µM
TGI (ACHN renal): 77.2 µM
TGI (BT-549 breast): > 100 µM
TGI (CAKI-1 renal): 96.7 µM
TGI (CCRF-CEM leukemia): 10.9 µM
TGI (COLO 205 colon): > 100 µM
TGI (DU-145 prostate): > 100 µM
TGI (EKVX NSCLC): 98.5 µM
TGI (HCT-15 colon): > 100 µM
TGI (HL-60(TB) leukemia): > 100 µM
TGI (HOP-62 NSCLC): 62 µM
TGI (HOP-92 NSCLC): 79.6 µM
TGI (HS 578T breast): > 100 µM
TGI (HT29 colon): > 100 µM
TGI (IGROV1 ovarian): > 100 µM
TGI (K-562 leukemia): > 100 µM
TGI (KM12 colon): > 100 µM
TGI (LOX IMVI melanoma): 45.4 µM
TGI (M14 melanoma): 85.7 µM
TGI (MALME-3M melanoma): 66.6 µM
TGI (MDA-MB-231 breast): > 100 µM
TGI (MDA-MB-435): > 100 µM
TGI (MDA-N): > 100 µM
TGI (MOLT-4 leukemia): > 100 µM
TGI (NCI-H23 lung): 74.3 µM
TGI (NCI-H460 lung): 39.8 µM
TGI (NCI-H522 lung): > 100 µM
TGI (NCI/ADR-RES ovarian): 72.4 µM
TGI (OVCAR-3 ovarian): 91.9 µM
TGI (OVCAR-4 ovarian): > 100 µM
TGI (OVCAR-5 ovarian): 95 µM
TGI (OVCAR-8 ovarian): > 100 µM
TGI (PC-3 prostate): > 100 µM
TGI (RPMI-8226 leukemia): 77.7 µM
TGI (SF-268 CNS): 32.8 µM
TGI (SF-295 CNS): > 100 µM
TGI (SF-539 CNS): > 100 µM
TGI (SK-MEL-2 melanoma): > 100 µM
TGI (SK-MEL-28 melanoma): > 100 µM
TGI (SK-MEL-5 melanoma): 95 µM
TGI (SK-OV-3 ovarian): > 100 µM
TGI (SN12C renal): 85.1 µM
TGI (SNB-19 CNS): > 100 µM
TGI (SNB-75 CNS): > 100 µM
TGI (SR leukemia): > 100 µM
TGI (SW-620 colon): > 100 µM
TGI (T-47D breast): > 100 µM
TGI (TK-10 renal): 59.4 µM
TGI (U251 CNS): > 100 µM
TGI (UACC-257 melanoma): > 100 µM
TGI (UACC-62 melanoma): 74.8 µM
TGI (UO-31 renal): > 100 µM

N=c1nc(N)nc(N)n1-c1ccc(S(N)(=O)=O)cc1
TGI (786-0 renal): > 100 µM
TGI (A498 renal): > 100 µM
TGI (A549 NSCLC): > 100 µM
TGI (ACHN renal): > 100 µM
TGI (BT-549 breast): > 100 µM
TGI (CAKI-1 renal): > 100 µM
TGI (CCRF-CEM leukemia): > 100 µM
TGI (DU-145 prostate): > 100 µM
TGI (EKVX NSCLC): > 100 µM
TGI (HCT-116 colon): > 100 µM
TGI (HCT-15 colon): > 100 µM
TGI (HL-60(TB) leukemia): > 100 µM
TGI (HOP-62 NSCLC): > 100 µM
TGI (HOP-92 NSCLC): > 100 µM
TGI (HT29 colon): > 100 µM
TGI (IGROV1 ovarian): > 100 µM
TGI (K-562 leukemia): > 100 µM
TGI (KM12 colon): > 100 µM
TGI (LOX IMVI melanoma): > 100 µM
TGI (M14 melanoma): > 100 µM
TGI (MALME-3M melanoma): > 100 µM
TGI (MDA-MB-231 breast): > 100 µM
TGI (MDA-MB-435): > 100 µM
TGI (MDA-N): > 100 µM
TGI (MOLT-4 leukemia): > 100 µM
TGI (NCI-H226 lung): > 100 µM
TGI (NCI-H23 lung): > 100 µM
TGI (NCI-H460 lung): > 100 µM
TGI (NCI-H522 lung): > 100 µM
TGI (NCI/ADR-RES ovarian): > 100 µM
TGI (OVCAR-3 ovarian): > 100 µM
TGI (OVCAR-4 ovarian): > 100 µM
TGI (OVCAR-5 ovarian): > 100 µM
TGI (OVCAR-8 ovarian): > 100 µM
TGI (PC-3 prostate): > 100 µM
TGI (RXF 393 renal): > 100 µM
TGI (SF-268 CNS): > 100 µM
TGI (SF-295 CNS): > 100 µM
TGI (SK-MEL-2 melanoma): > 100 µM
TGI (SK-MEL-28 melanoma): > 100 µM
TGI (SK-MEL-5 melanoma): > 100 µM
TGI (SN12C renal): > 100 µM
TGI (SNB-19 CNS): > 100 µM
TGI (SR leukemia): > 100 µM
TGI (SW-620 colon): > 100 µM
TGI (T-47D breast): > 100 µM
TGI (TK-10 renal): > 100 µM
TGI (U251 CNS): > 100 µM
TGI (UACC-257 melanoma): > 100 µM
TGI (UACC-62 melanoma): > 100 µM
TGI (UO-31 renal): > 100 µM
